Assay [1] concerns the target KRas G12C (Homo sapiens, UniProt P01116, C118S/C51S/C80L/G12C). Kind of assay: KRas G12C Modification Assay (LCMS detection of covalent adduct). As to conditions: normalized percent of control; tested at 5 μM concentration for 3 hours. The assay is classed as binding. The method, boiled down:
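Cys-light KRas G12C mutant protein incubated with compound in K-Ras assay buffer, reactions quenched at set time points with 25 mM acetic acid and analysed by intact-protein LC/MS on a C-3 column. Deconvoluted mass heights expressed as percent of control (POC) relative to compound-free protein.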

Assay [2] has as its system NCI-H358 cells (express KRas G12C), Phospho-ERK. Kind of assay: Cellular inhibition of KRas G12C: Phospho-ERK in NCI-H358 cells. The assay is classed as cell-based. As to conditions: Homo sapiens, pERK(Thr202/Tyr204) normalized with GAPDH, NCI-H358 cells, 3 hours, read-out: IC50. The method, boiled down:
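IC50 derived by 4-parameter fit of GAPDH-normalized pERK(Thr202/Tyr204) signal, as percent of DMSO control. Signal came from in-cell immunodetection with infrared secondaries after 3 h compound exposure of KRas G12C NCI-H358 cells at 0.5% DMSO.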

Read-outs that look alike come from different tables or passages of the source.

What is called IC50 is the point on the concentration scale where inhibition reaches its midpoint. In the case of `C=CC(=O)N1CCN(c2nc(OC[C@H]3CCCN3C)nc3c2CCN(c2cc(O)cc4ccccc24)C3)[C@@H](C)C1` [Example 203, 1-((S)-4-(7-(3-hydroxynaphthalen-1-yl)-2-(((R)-1-methylpyrrolidin-2-yl)methoxy)-5,6,7,8-tetrahydropyrido[3,4-d]pyrimidin-4-yl)-3-methylpiperazin-1-yl)prop-2-en-1-one], the POC entry in assay [1] was “C (“C”>50% POC)”. In addition, the IC50 in assay [2] (NCI-H358, 3 h) was in the range of 0.1 to 1000 nM.
For the molecule `C=CC(=O)N1CCN(c2nc(NC3CCN(C4CC4)CC3)nc3c2CCN(c2cc(O)cc4ccccc24)C3)CC1` [Example 204, 1-(4-(2-((1-cyclopropylpiperidin-4-yl)amino)-7-(3-hydroxynaphthalen-1-yl)-5,6,7,8-tetrahydropyrido[3,4-d]pyrimidin-4-yl)piperazin-1-yl)prop-2-en-1-one], the POC result in assay [1] is “C (“C”>50% POC)”. Also, in assay [2], the IC50 was more than 1000 nM.
On the same counts, the results for `C=CC(=O)N1CCN(c2nc(OCCCN3CCOCC3)nc3c2CCN(c2cc(O)cc4cccnc24)C3)CC1` [Example 205, 1-(4-(7-(6-hydroxyquinolin-8-yl)-2-(3-morpholinopropoxy)-5,6,7,8-tetrahydropyrido[3,4-d]pyrimidin-4-yl)piperazin-1-yl)prop-2-en-1-one] are “C (“C”>50% POC)” and more than 1000 nM.
For `C=CC(=O)N1CCN(c2nc(OCCCN3CC4CC4C3)nc3c2CCN(c2cc(O)cc4ccccc24)C3)CC1` (stereo not drawn) [Example 206, 1-(4-(2-(3-(3-azabicyclo[3.1.0]hexan-3-yl)propoxy)-7-(3-hydroxynaphthalen-1-yl)-5,6,7,8-tetrahydropyrido[3,4-d]pyrimidin-4-yl)piperazin-1-yl)prop-2-en-1-one], in that order: “C (“C”>50% POC)” and 0.1 to 1000 nM.
On the same counts, the results for `C=CC(=O)N1CCN(c2nc(OCCN3CCC[C@@H](F)C3)nc3c2CCN(c2cc(O)cc4ccccc24)C3)CC1` [Example 207, (R)-1-(4-(2-(2-(3-fluoropiperidin-1-yl)ethoxy)-7-(3-hydroxynaphthalen-1-yl)-5,6,7,8-tetrahydropyrido[3,4-d]pyrimidin-4-yl)piperazin-1-yl)prop-2-en-1-one] are “C (“C”>50% POC)” and more than 1000 nM.
With `C=CC(=O)N1CCN(c2nc(OCCCN3C[C@@H](F)[C@@H](F)C3)nc3c2CCN(c2cc(O)cc4ccccc24)C3)CC1` [Example 208, 1-(4-(2-(3-((3R,4S)-3,4-difluoropyrrolidin-1-yl)propoxy)-7-(3-hydroxynaphthalen-1-yl)-5,6,7,8-tetrahydropyrido[3,4-d]pyrimidin-4-yl)piperazin-1-yl)prop-2-en-1-one], in assay [1], the POC result was “C (“C”>50% POC)”. The concentration for half-maximal inhibition (IC50) in assay [2] is more than 1000 nM.
On the same counts, the results for `C=CC(=O)N1CCN(c2nc(OCCCN3CCOCC3)nc3c2CCN(c2c(C)ccc4[nH]ccc24)C3)CC1` [Example 209, 1-(4-(7-(5-methyl-1H-indol-4-yl)-2-(3-morpholinopropoxy)-5,6,7,8-tetrahydropyrido[3,4-d]pyrimidin-4-yl)piperazin-1-yl)prop-2-en-1-one] are “C (“C”>50% POC)” and more than 1000 nM.
For `C=CC(=O)N1CCN(c2nc(OC[C@@H]3CCCN3C)nc3c2CCN(c2ccccc2C(F)(F)F)C3)CC1CC#N` (stereo partly drawn) [Example 210, 2-(1-acryloyl-4-(2-(((S)-1-methylpyrrolidin-2-yl)methoxy)-7-(2-(trifluoromethyl)phenyl)-5,6,7,8-tetrahydropyrido[3,4-d]pyrimidin-4-yl)piperazin-2-yl)acetonitrile], in that order: “C (“C”>50% POC)” and 0.1 to 1000 nM.
With `C=CC(=O)N1CCN(c2nc(OC[C@@H]3CCCN3C)nc3c2CCN(c2ccccc2OC(F)(F)F)C3)CC1CC#N` (stereo partly drawn) [Example 211, 2-(1-acryloyl-4-(2-(((S)-1-methylpyrrolidin-2-yl)methoxy)-7-(2-(trifluoromethoxy)phenyl)-5,6,7,8-tetrahydropyrido[3,4-d]pyrimidin-4-yl)piperazin-2-yl)acetonitrile], the POC entry in assay [1] is reported as “C (“C”>50% POC)”. Also, the concentration for half-maximal inhibition (IC50) in assay [2] (NCI-H358, 3 h) was in the range of 0.1 to 1000 nM.
For the molecule `C=CC(=O)N1CCN(c2nc(OC[C@@H]3CCCN3C)nc3c2CCN(c2cnccc2C(F)(F)F)C3)CC1CC#N` (stereo partly drawn) [Example 212, 2-(1-acryloyl-4-(2-(((S)-1-methylpyrrolidin-2-yl)methoxy)-7-(4-(trifluoromethyl)pyridin-3-yl)-5,6,7,8-tetrahydropyrido[3,4-d]pyrimidin-4-yl)piperazin-2-yl)acetonitrile], the POC result in assay [1] is “C (“C”>50% POC)”. In addition, the IC50 in assay [2] (NCI-H358, 3 h) is 0.1 to 1000 nM.
As for `C=CC(=O)N1CCN(c2nc(OCCCN3CCOCC3)nc3c2CCN(c2cc(O)cc(C)c2C)C3)CC1` [Example 213, 1-(4-(7-(5-hydroxy-2,3-dimethylphenyl)-2-(3-morpholinopropoxy)-5,6,7,8-tetrahydropyrido[3,4-d]pyrimidin-4-yl)piperazin-1-yl)prop-2-en-1-one], the POC result in assay [1] was “C (“C”>50% POC)”. For the same molecule, the half-inhibitory concentration (IC50) in assay [2] is more than 1000 nM.
On the same counts, the results for `C=CC(=O)N1CCN(c2nc(OCCCN3CCOCC3)nc3c2CCN(c2cc(O)ccc2SC(F)(F)F)C3)CC1` [Example 214, 1-(4-(7-(5-hydroxy-2-((trifluoromethyl)thio)phenyl)-2-(3-morpholinopropoxy)-5,6,7,8-tetrahydropyrido[3,4-d]pyrimidin-4-yl)piperazin-1-yl)prop-2-en-1-one] are “C (“C”>50% POC)” and more than 1000 nM.
In the case of `C=CC(=O)N1CCN(c2nc(OC(CO)CN3CCOCC3)nc3c2CCN(c2cc(O)cc4ccccc24)C3)CC1` (stereo not drawn) [Example 217, 1-(4-(2-((1-hydroxy-3-morpholinopropan-2-yl)oxy)-7-(3-hydroxynaphthalen-1-yl)-5,6,7,8-tetrahydropyrido[3,4-d]pyrimidin-4-yl)piperazin-1-yl)prop-2-en-1-one], in assay [1], the POC entry was “C (“C”>50% POC)”. For the same molecule, the IC50 in assay [2] (NCI-H358, 3 h) was more than 1000 nM.
Regarding `C=CC(=O)N1CCN(c2nc(OC[C@@H]3C[C@@H](O)CN3C)nc3c2CCN(c2cccc4ccccc24)C3)CC1CC#N` (stereo partly drawn) [Example 218, 2-(1-acryloyl-4-(2-(((2S,4R)-4-hydroxy-1-methylpyrrolidin-2-yl)methoxy)-7-(naphthalen-1-yl)-5,6,7,8-tetrahydropyrido[3,4-d]pyrimidin-4-yl)piperazin-2-yl)acetonitrile], the POC entry in assay [1] is “C (“C”>50% POC)”. Moreover, the IC50 in assay [2] (NCI-H358, 3 h) was 0.1 to 1000 nM.
On the same counts, the results for `C=CC(=O)N1CCN(c2nc(OCC3CN(C)CCN3C)nc3c2CCN(c2cc(O)cc4ccccc24)C3)CC1` (stereo not drawn) [Example 219, 1-(4-(2-((1,4-dimethylpiperazin-2-yl)methoxy)-7-(3-hydroxynaphthalen-1-yl)-5,6,7,8-tetrahydropyrido[3,4-d]pyrimidin-4-yl)piperazin-1-yl)prop-2-en-1-one] are “C (“C”>50% POC)” and more than 1000 nM.
Regarding `C=CC(=O)N1CCN(c2nc(OC[C@@H]3C[C@@H](F)CN3C)nc3c2CCN(c2cccc4ccccc24)C3)CC1CC#N` (stereo partly drawn) [Example 220, 2-(1-acryloyl-4-(2-(((2 S,4R)-4-fluoro-1-methylpyrrolidin-2-yl)methoxy)-7-(naphthalen-1-yl)-5,6,7,8-tetrahydropyrido[3,4-d]pyrimidin-4-yl)piperazin-2-yl)acetonitrile], the POC result in assay [1] was “C (“C”>50% POC)”. For the same molecule, the half-maximal inhibitory concentration (IC50) in assay [2] was 0.1 to 1000 nM.
With `C=CC(=O)N1CCN(c2nc(OC[C@@H]3C[C@H](F)CN3C)nc3c2CCN(c2cccc4ccccc24)C3)CC1CC#N` (stereo partly drawn) [Example 221, 2-(1-acryloyl-4-(2-(((2S,4S)-4-fluoro-1-methylpyrrolidin-2-yl)methoxy)-7-(naphthalen-1-yl)-5,6,7,8-tetrahydropyrido[3,4-d]pyrimidin-4-yl)piperazin-2-yl)acetonitrile], the POC entry in assay [1] is recorded as “C (“C”>50% POC)”. Further, the IC50 in assay [2] (NCI-H358, 3 h) lay in the range of 0.1 to 1000 nM.
For `C=CC(=O)N1CCN(c2nc(OC[C@@H]3C[C@H](OC)CN3C)nc3c2CCN(c2cccc4ccccc24)C3)CC1CC#N` (stereo partly drawn) [Example 222, 2-(1-acryloyl-4-(2-(((2S,4S)-4-methoxy-1-methylpyrrolidin-2-yl)methoxy)-7-(naphthalen-1-yl)-5,6,7,8-tetrahydropyrido[3,4-d]pyrimidin-4-yl)piperazin-2-yl)acetonitrile], in that order: “C (“C”>50% POC)” and 0.1 to 1000 nM.
Regarding `C=CC(=O)N1CCN(c2nc(OC[C@@H]3CN(C)CCN3)nc3c2CCN(c2cccc4ccccc24)C3)CC1CC#N` (stereo partly drawn) [Example 223, 2-(1-acryloyl-4-(2-(((S)-4-methylpiperazin-2-yl)methoxy)-7-(naphthalen-1-yl)-5,6,7,8-tetrahydropyrido[3,4-d]pyrimidin-4-yl)piperazin-2-yl)acetonitrile], in assay [1], the POC result is “C (“C”>50% POC)”. In assay [2] (NCI-H358, 3 h), the IC50 was in the range of 0.1 to 1000 nM.
`C=CC(=O)N1CCN(c2nc(OC[C@H]3CN(C)CCN3)nc3c2CCN(c2cccc4ccccc24)C3)CC1CC#N` (stereo partly drawn) [Example 224, 2-(1-acryloyl-4-(2-(((R)-4-methylpiperazin-2-yl)methoxy)-7-(naphthalen-1-yl)-5,6,7,8-tetrahydropyrido[3,4-d]pyrimidin-4-yl)piperazin-2-yl)acetonitrile]: in assay [1], the POC result is on record as “C (“C”>50% POC)”. Moreover, in assay [2] (NCI-H358, 3 h), the half-maximal inhibitory concentration (IC50) fell in the range of 0.1 to 1000 nM.
For `C=CC(=O)N1CCN(c2nc(OC[C@@H]3CCCN3C)nc3c2CCN(c2cc(F)ccc2OC(F)(F)F)C3)CC1CC#N` (stereo partly drawn) [Example 225, 2-(1-acryloyl-4-(7-(5-fluoro-2-(trifluoromethoxy)phenyl)-2-(((S)-1-methylpyrrolidin-2-yl)methoxy)-5,6,7,8-tetrahydropyrido[3,4-d]pyrimidin-4-yl)piperazin-2-yl)acetonitrile], in that order: “C (“C”>50% POC)” and 0.1 to 1000 nM.

For the origin of these results see patent US10125134B2 (Mirati Therapeutics, Inc., priority 2016, dated 2018).
